Reference: patent US4130559A, “Method for the preparation of 6-aminopenicillinic acid derivatives” (priority 1977, dated 1978)
In brackets after ≈: the same amount, converted by molar mass. Read-outs that look alike come from different tables or passages of the source.

Assays:
in vivo = details: mouse, iv
[1] = Acid resistance (half-life period); assay type: physicochemical; details: acid ph 1.3, Temperature 37° C, pH 1.3, read-out: τ1/2 half-life period (acid resistance)
Procedure: (§1) All compounds of this group were prepared in the form of sodium salts. Bactericidal activity, degree of hydrolysis with staphylococc penicillinase and acid resistance of the penicillins were determined.

E.coli O-55 = assay: Minimal bacteriostatic concentration; assay type: cell-based; details: Escherichia coli, O55, read-out: Minimal Bacteriostatic Concentration
Procedure: as §1

Sh.dysenteriae Flexneri = assay: Minimal bacteriostatic concentration; assay type: cell-based; details: Shigella dysenteriae, read-out: Minimal Bacteriostatic Concentration
Procedure: as §1

Vibrion Metschnicoff = assay: Minimal bacteriostatic concentration; assay type: cell-based; details: Vibrion Metschnicoff; sodium salts; read-out: Minimal Bacteriostatic Concentration
Procedure: as §1

Strept. pyrogenes = assay: Minimal bacteriostatic concentration; assay type: cell-based; details: sodium salts
Procedure: as §1

Prot.vulgaris = assay: Minimal bacteriostatic concentration; assay type: cell-based; details: Proteus vulgaris, sodium salts
Procedure: as §1

Staph. albus = assay: Minimal bacteriostatic concentration; assay type: cell-based; details: sodium salts
Procedure: as §1

B.Subtitis ATCC6633 = assay: Minimal bacteriostatic concentration; assay type: cell-based; details: sodium salts
Procedure: as §1

Myco smegmatis = assay: Minimal bacteriostatic concentration; assay type: cell-based; details: sodium salts
Procedure: as §1

Staph. aureus 209p = assay: Minimal bacteriostatic concentration; assay type: cell-based; details: Staphylococcus aureus, sodium salts
Procedure: as §1

[2] = target: staphylococc penicillinase (Staphylococcus aureus, UniProt P00807); assay: Hydrolysis/inactivation by staphylococc penicillinase; assay type: biochemical; details: Table 5
staphylococc penicillinase, sequence (P00807 25-281): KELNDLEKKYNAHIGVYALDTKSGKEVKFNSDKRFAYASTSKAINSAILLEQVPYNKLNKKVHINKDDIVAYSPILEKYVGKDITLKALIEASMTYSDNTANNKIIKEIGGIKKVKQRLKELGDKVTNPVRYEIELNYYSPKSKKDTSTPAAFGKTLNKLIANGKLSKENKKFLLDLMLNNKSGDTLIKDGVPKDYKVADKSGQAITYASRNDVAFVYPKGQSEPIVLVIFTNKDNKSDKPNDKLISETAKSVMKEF
Procedure: as §1
The substitution of propoxy radical for iso-radical in this position is not accompanied by areduction of penicillin stability against penicillinase which is not observed in the orto- and para-positions. During the subsequent hours of inactivation the rate of hydrolysis of penicillins slightly increases. However, even when observed in dynamics, their stability against penicillianase still persists during 4-hour-inactivation.

Ps.aeruginosa = assay: Minimal bacteriostatic concentration; assay type: cell-based; details: Pseudomonas aeruginosa, sodium salts
Procedure: as §1

E.typhi = assay: Minimal bacteriostatic concentration; assay type: cell-based; details: read-out: Minimal Bacteriostatic Concentration
Procedure: as §1

Row | SMILES | MTD (in vivo) | half-life ([1]; Table 2, cyclopropyl series) | half-life ([1]; Table 3, cyclobutyl series) | other results
1 | CC1(C)SC2C(NC(=O)C3(c4ccccc4)CC3)C(=O)N2C1C(=O)O (stereo not shown) [Compound I (Table 2)] | 1500 mg/kg | 9.9 min |  | 
2 | CC1(C)S[C@@H]2[C@H](NC(=O)C3(c4ccccc4)CCC3)C(=O)N2[C@H]1C(=O)O [Compound I (Table 3)] | 1000 mg/kg |  | 86.6 min | 
3 | COc1ccccc1C1(C(=O)NC2C(=O)N3C2SC(C)(C)C3C(=O)O)CC1 (stereo not shown) [Compound II (Table 2)] | 2000 mg/kg | 5 min |  | 
4 | COc1ccccc1C1(C(=O)N[C@@H]2C(=O)N3[C@@H]2SC(C)(C)[C@@H]3C(=O)O)CCC1 [Compound II (Table 3)] | 500 mg/kg |  | 7.7 min | 
5 | CCOc1ccccc1C1(C(=O)NC2C(=O)N3C2SC(C)(C)C3C(=O)O)CC1 (stereo not shown) [Compound III (Table 2)] | 500 mg/kg | 6 min |  | 
6 | CCOc1ccccc1C1(C(=O)N[C@@H]2C(=O)N3[C@@H]2SC(C)(C)[C@@H]3C(=O)O)CCC1 [Compound III (Table 3)] | 250 mg/kg |  | 19.1 min | 
7 | CCCOc1ccccc1C1(C(=O)NC2C(=O)N3C2SC(C)(C)C3C(=O)O)CC1 (stereo not shown) [Compound IV (Table 2)] | 500 mg/kg | 5.8 min |  | 
8 | CCCOc1ccccc1C1(C(=O)N[C@@H]2C(=O)N3[C@@H]2SC(C)(C)[C@@H]3C(=O)O)CCC1 [Compound IV (Table 3)] | 500 mg/kg |  | 23 min | 
9 | CCCOc1cccc(C2(C(=O)N[C@@H]3C(=O)N4[C@@H]3SC(C)(C)[C@@H]4C(=O)O)CC2)c1 [Compound IX (Table 2)] | 1500 mg/kg | 14.5 min |  | 
10 | CCCOc1cccc(C2(C(=O)N[C@@H]3C(=O)N4[C@@H]3SC(C)(C)[C@@H]4C(=O)O)CCC2)c1 [Compound IX (Table 3)] | 250 mg/kg |  | 20.1 min | 
11 | CC(C)Oc1ccccc1C1(C(=O)NC2C(=O)N3C2SC(C)(C)C3C(=O)O)CC1 (stereo not shown) [Compound V (Table 2)] | 500 mg/kg | 6 min |  | 
12 | CC(C)Oc1ccccc1C1(C(=O)N[C@@H]2C(=O)N3[C@@H]2SC(C)(C)[C@@H]3C(=O)O)CCC1 [Compound V (Table 3)] | 250 mg/kg |  | 18.6 min | 
13 | CCCCOc1ccccc1C1(C(=O)NC2C(=O)N3C2SC(C)(C)C3C(=O)O)CC1 (stereo not shown) [Compound VI (Table 2)] | 500 mg/kg | 5.2 min |  | 
14 | CCCCOc1ccccc1C1(C(=O)N[C@@H]2C(=O)N3[C@@H]2SC(C)(C)[C@@H]3C(=O)O)CCC1 [Compound VI (Table 3)] | 1000 mg/kg |  | 24.9 min | 
15 | COc1cccc(C2(C(=O)NC3C(=O)N4C3SC(C)(C)C4C(=O)O)CC2)c1 (stereo not shown) [Compound VII (Table 2)] | 1500 mg/kg | 7.2 min |  | 
16 | COc1cccc(C2(C(=O)N[C@@H]3C(=O)N4[C@@H]3SC(C)(C)[C@@H]4C(=O)O)CCC2)c1 [Compound VII (Table 3)] | 1500 mg/kg |  | 56.9 min | 
17 | CCOc1cccc(C2(C(=O)NC3C(=O)N4C3SC(C)(C)C4C(=O)O)CC2)c1 (stereo not shown) [Compound VIII (Table 2)] | 1500 mg/kg | 7.3 min |  | 
18 | CCOc1cccc(C2(C(=O)N[C@@H]3C(=O)N4[C@@H]3SC(C)(C)[C@@H]4C(=O)O)CCC2)c1 [Compound VIII (Table 3)] | 1500 mg/kg |  | 23.8 min | 

Row | SMILES | MTD (in vivo) | half-life ([1]; Table 2, cyclopropyl series) | half-life ([1]; Table 3, cyclobutyl series) | other results
19 | CC(C)Oc1cccc(C2(C(=O)N[C@@H]3C(=O)N4[C@@H]3SC(C)(C)[C@@H]4C(=O)O)CC2)c1 [Compound X (Table 2)] | 500 mg/kg | 10.5 min |  | 
20 | CC(C)Oc1cccc(C2(C(=O)N[C@@H]3C(=O)N4[C@@H]3SC(C)(C)[C@@H]4C(=O)O)CCC2)c1 [Compound X (Table 3)] | 500 mg/kg |  | 17.2 min | 
21 | CCCCOc1cccc(C2(C(=O)NC3C(=O)N4C3SC(C)(C)C4C(=O)O)CCCC2)c1 (stereo not shown) [Compound XI (Table 1)] | 2000 mg/kg |  |  | MIC (E.coli O-55): 125 µg/mL (≈ 271 µM); MIC (Sh.dysenteriae Flexneri): 125 µg/mL (≈ 271 µM); MIC (Vibrion Metschnicoff): 15.6 µg/mL; MIC (Strept. pyrogenes): 0.39 µg/mL; MIC (Prot.vulgaris): 125 µg/mL; MIC (Staph. albus): 0.19 µg/mL; MIC (B.Subtitis ATCC6633): 1.56 µg/mL; MIC (Myco smegmatis): > 500 µg/mL; MIC (Staph. aureus 209p): 0.39 µg/mL; half-life ([1]; Table 1, cyclopentyl series): 278 min; Quantity of inactivated units of compounds under the action of 1 unit of staphylococc penicillinase [2]: 11.2 units
22 | CCCCOc1cccc(C2(C(=O)N[C@@H]3C(=O)N4[C@@H]3SC(C)(C)[C@@H]4C(=O)O)CC2)c1 [Compound XI (Table 2)] | 250 mg/kg | 6.2 min |  | 
23 | CCCCOc1cccc(C2(C(=O)N[C@@H]3C(=O)N4[C@@H]3SC(C)(C)[C@@H]4C(=O)O)CCC2)c1 [Compound XI (Table 3)] | 1000 mg/kg |  | 46.6 min | 
24 | COc1ccc(C2(C(=O)NC3C(=O)N4C3SC(C)(C)C4C(=O)O)CCCC2)cc1 (stereo not shown) [Compound XII (Table 1)] | 2000 mg/kg |  |  | MIC (E.coli O-55): 125 µg/mL (≈ 299 µM); MIC (Ps.aeruginosa): > 500 µg/mL; MIC (Sh.dysenteriae Flexneri): 31.2 µg/mL (≈ 74.5 µM); MIC (Vibrion Metschnicoff): 0.48 µg/mL; MIC (Strept. pyrogenes): 0.048 µg/mL; MIC (Prot.vulgaris): 62.5 µg/mL; MIC (Staph. albus): 0.19 µg/mL; MIC (B.Subtitis ATCC6633): 0.24 µg/mL; MIC (Myco smegmatis): > 500 µg/mL; MIC (Staph. aureus 209p): 0.19 µg/mL; MIC (E.typhi): 7.8 µg/mL (≈ 18.6 µM); half-life ([1]; Table 1, cyclopentyl series): 163 min; Quantity of inactivated units of compounds under the action of 1 unit of staphylococc penicillinase [2]: 40.3 units
25 | COc1ccc(C2(C(=O)N[C@@H]3C(=O)N4[C@@H]3SC(C)(C)[C@@H]4C(=O)O)CC2)cc1 [Compound XII (Table 2)] | 2000 mg/kg | 7.3 min |  | 
26 | COc1ccc(C2(C(=O)N[C@@H]3C(=O)N4[C@@H]3SC(C)(C)[C@@H]4C(=O)O)CCC2)cc1 [Compound XII (Table 3)] | 1500 mg/kg |  | 10.7 min | 
27 | CCOc1ccc(C2(C(=O)NC3C(=O)N4C3SC(C)(C)C4C(=O)O)CCCC2)cc1 (stereo not shown) [Compound XIII (Table 1), 1-(n-Ethoxyphenyl)Cyclopentyl-1-Penicillin] | 1500 mg/kg |  |  | MIC (E.coli O-55): 62.5 µg/mL (≈ 144 µM); MIC (Ps.aeruginosa): > 500 µg/mL; MIC (Sh.dysenteriae Flexneri): 31.2 µg/mL (≈ 72.1 µM); MIC (Vibrion Metschnicoff): 0.19 µg/mL; MIC (Strept. pyrogenes): 0.048 µg/mL; MIC (Prot.vulgaris): 62.5 µg/mL; MIC (Staph. albus): 0.09 µg/mL; MIC (B.Subtitis ATCC6633): 0.24 µg/mL; MIC (Myco smegmatis): > 500 µg/mL; MIC (Staph. aureus 209p): 0.19 µg/mL; MIC (E.typhi): 7.8 µg/mL (≈ 18 µM); half-life ([1]; Table 1, cyclopentyl series): 99.2 min; Quantity of inactivated units of compounds under the action of 1 unit of staphylococc penicillinase [2]: 24.9 units
28 | CCOc1ccc(C2(C(=O)N[C@@H]3C(=O)N4[C@@H]3SC(C)(C)[C@@H]4C(=O)O)CC2)cc1 [Compound XIII (Table 2)] | 2750 mg/kg | 6.7 min |  | 
29 | CCOc1ccc(C2(C(=O)N[C@@H]3C(=O)N4[C@@H]3SC(C)(C)[C@@H]4C(=O)O)CCC2)cc1 [Compound XIII (Table 3)] | 1000 mg/kg |  | 190 min | 
30 | CCCOc1ccc(C2(C(=O)NC3C(=O)N4C3SC(C)(C)C4C(=O)O)CCCC2)cc1 (stereo not shown) [Compound XIV (Table 1)] | 1500 mg/kg |  |  | MIC (E.coli O-55): 125 µg/mL (≈ 280 µM); MIC (Ps.aeruginosa): > 500 µg/mL; MIC (Sh.dysenteriae Flexneri): 31.2 µg/mL (≈ 69.9 µM); MIC (Vibrion Metschnicoff): 0.9 µg/mL; MIC (Strept. pyrogenes): 0.048 µg/mL; MIC (Prot.vulgaris): 62.5 µg/mL; MIC (Staph. albus): 0.09 µg/mL; MIC (B.Subtitis ATCC6633): 0.24 µg/mL; MIC (Myco smegmatis): > 500 µg/mL; MIC (Staph. aureus 209p): 0.39 µg/mL; MIC (E.typhi): 7.8 µg/mL (≈ 17.5 µM); half-life ([1]; Table 1, cyclopentyl series): 88.9 min; Quantity of inactivated units of compounds under the action of 1 unit of staphylococc penicillinase [2]: 10.4 units
31 | CCCOc1ccc(C2(C(=O)N[C@@H]3C(=O)N4[C@@H]3SC(C)(C)[C@@H]4C(=O)O)CC2)cc1 [Compound XIV (Table 2)] | 1000 mg/kg | 19.4 min |  | 
32 | CCCOc1ccc(C2(C(=O)N[C@@H]3C(=O)N4[C@@H]3SC(C)(C)[C@@H]4C(=O)O)CCC2)cc1 [Compound XIV (Table 3)] | 250 mg/kg |  | 27.3 min | 
33 | CC(C)Oc1ccc(C2(C(=O)NC3C(=O)N4C3SC(C)(C)C4C(=O)O)CCCC2)cc1 (stereo not shown) [Compound XV (Table 1)] | 1500 mg/kg |  |  | MIC (E.coli O-55): 25 µg/mL (≈ 56 µM); MIC (Ps.aeruginosa): > 500 µg/mL; MIC (Sh.dysenteriae Flexneri): 31.2 µg/mL (≈ 69.9 µM); MIC (Vibrion Metschnicoff): 0.48 µg/mL; MIC (Strept. pyrogenes): 0.09 µg/mL; MIC (Prot.vulgaris): 62.5 µg/mL; MIC (Staph. albus): 0.19 µg/mL; MIC (B.Subtitis ATCC6633): 0.24 µg/mL; MIC (Myco smegmatis): > 500 µg/mL; MIC (Staph. aureus 209p): 0.19 µg/mL; MIC (E.typhi): 7.8 µg/mL (≈ 17.5 µM); half-life ([1]; Table 1, cyclopentyl series): 160 min; Quantity of inactivated units of compounds under the action of 1 unit of staphylococc penicillinase [2]: 9.4 units
34 | CC(C)Oc1ccc(C2(C(=O)N[C@@H]3C(=O)N4[C@@H]3SC(C)(C)[C@@H]4C(=O)O)CCC2)cc1 [Compound XV (Table 3)] | 500 mg/kg |  | 60.1 min | 
35 | CCCCOc1ccc(C2(C(=O)N[C@@H]3C(=O)N4[C@@H]3SC(C)(C)[C@@H]4C(=O)O)CC2)cc1 [Compound XVI (Table 2)] | 250 mg/kg | 6.1 min |  | 
36 | CCCCOc1ccc(C2(C(=O)N[C@@H]3C(=O)N4[C@@H]3SC(C)(C)[C@@H]4C(=O)O)CCC2)cc1 [Compound XVI (Table 3)] | 500 mg/kg |  | 25.6 min | 
